Assay results published in patent US20240115654A1, “INTRAVENOUS ADMINISTRATION OF ENGINEERED ANTIMICROBIAL AMPHIPHILIC PEPTIDES” (priority 2021, published 2024).
Converted amounts (≈) assume the structure as drawn. Read-outs that look alike come from different tables or passages of the source.

Legend:
[1] = tested on: Acinetobacter spp. isolates (n = 104); details: Acinetobacter spp. (n = 104); CLSI breakpoints
Procedure: (§1) Comparator antibiotics were supplied by Micromyx, and stock solutions were prepared on the first day of testing using solvents recommended by CLSI (1). Stock solutions of all compounds were made at 40× the final testing concentration and stored at −80° C. prior to testing. Information regarding compound source, catalog and lot number, testing concentrations and drug diluent for the comparators and test agent are detailed below in Table 3.
(§2) The test organisms evaluated in this study consisted of clinical isolates from the Micromyx Repository and reference isolates from the American Type Culture Collection (ATCC; Manassas, VA). The clinical isolates were obtained from USA hospitals. Upon initial receipt at Micromyx, the organisms were sub-cultured onto an appropriate agar medium. Following incubation, colonies were harvested from these plates and cell suspensions prepared and frozen at −80° C. with a cryoprotectant. Prior to testing, the isolates were streaked from frozen vials onto Trypticase Soy Agar with 5% sheep blood (Becton Dickenson [BD]; Sparks, MD; Lot Nos. 7173618, 7166759, 7208688, 72144895, 7228505 and Remel Lenexa, KS Lot No. 212574). Plates were incubated at 35° C. overnight.
(§3) Mueller Hinton II broth (MHB II; BD; Lot Nos. 6258541 and 7143896) was used for MIC testing of aerobic organisms.
(§4) MIC values were determined using a broth microdilution procedure described by CLSI (1, 3). Automated liquid handlers (Multidrop 384, Labsystems, Helsinki, Finland; Biomek 2000 and Biomek FX, Beckman Coulter, Fullerton CA) were used to conduct serial dilutions and liquid transfers.
(§5) To prepare the drug mother plates, which would provide the serial drug dilutions for the replicate daughter plates, the wells of columns 2-12 of standard 96-well microdilution plates (Costar 3795) were filled with 150 μl of the designated diluent for each row of drug. The test articles and comparator compounds (300 μl at 40× the highest concentration to be tested) were dispensed into the appropriate wells in column 1. The Biomek 2000 was then used to make 2-fold serial dilutions in the mother plates from column 1 through column 11. The wells of Column 12 contained no drug and served as the organism growth control wells for the assay.
(§6) The daughter plates were loaded with 185 μL per well of MHB II using the Multidrop 384. The daughter plates were completed on the Biomek FX instrument which transferred 5 μL of drug solution from each well of a mother plate to the corresponding well of each daughter plate in a single step. A standardized inoculum of each test organism was prepared per CLSI methods (1). The inoculum for each organism was dispensed into sterile reservoirs divided by length (Beckman Coulter), and the Biomek 2000 was used to inoculate the plates. Daughter plates were placed on the Biomek 2000 work surface in reverse orientation so that inoculation took place from low to high drug concentration.
(§7) Plates were stacked 3-4 high, covered with a lid on the top plate, placed in plastic bags, and incubated at 35° C. for 16 to 20 hrs. Following incubation, the microplates were removed from the incubator and viewed from the bottom using a plate viewer. […] The MIC was read and recorded as the lowest concentration of drug that inhibited visible growth of the organism.
(§8) Clinical breakpoints to determine percent resistance within a given organism group were obtained from CLSI (3), with the exception of colistin for K. pneumoniae, Enterobacter spp., and E. coli, which are only available from EUCAST.

[2] = tested on: Escherichia coli isolates (n = 101); details: Escherichia coli (n = 101); CLSI breakpoints, colistin EUCAST
Procedure: as §1, §2, §3, §4, §5, §6, §7, §8

[3] = tested on: Pseudomonas aeruginosa isolates (n = 109); details: Pseudomonas aeruginosa (n = 109); CLSI breakpoints
Procedure: as §1, §2, §3, §4, §5, §6, §7, §8

[4] = tested on: Klebsiella pneumoniae isolates (n = 101)
Procedure: as §1, §2, §3, §4, §5, §6, §7, §8

[5] = tested on: Enterobacter spp. isolates (Enterobacter aerogenes and E. cloacae, n = 102); test: organism not typed; details: for % R (percent of isolates resistant): CLSI breakpoints, colistin EUCAST; for MIC: read-out: Mode (MIC)
Procedure: as §1, §2, §3, §4, §5, §6, §7, §8

[6] = tested on: Staphylococcus aureus isolates (n = 104); test: microbe, parasite or virus in culture; details: for % R (percent of isolates resistant): CLSI breakpoints
Procedure: as §1, §2, §3, §4, §5, §6, §7, §8

[7] = tested on: Enterococcus faecium isolates (n = 104); test: microbe, parasite or virus in culture; details: for MIC: read-out: Mode (MIC); for % R (percent of isolates resistant): CLSI breakpoints
Procedure: as §1
as §2, with “Prior to testing, the isolates were streaked from frozen vials onto Trypticase Soy Agar with 5% sheep blood (Becton Dickenson [BD]; Sparks, MD; Lot Nos. 7173618, 7166759, 7208688, 72144895, 7228505 and Remel Lenexa, KS Lot No. 212574).” left out
MIC values were determined using a broth microdilution procedure described by CLSI (1, 3).
The test articles and comparator compounds (300 μl at 40× the highest concentration to be tested) were dispensed into the appropriate wells in column 1. The Biomek 2000 was then used to make 2-fold serial dilutions in the mother plates from column 1 through column 11. The wells of Column 12 contained no drug and served as the organism growth control wells for the assay.
as §6, with “The” for “The daughter plates were loaded with 185 μL per well of MHB II using the Multidrop 384. The”
as §7, §8

[8] = Klebsiella pneumoniae (n = 101), CLSI breakpoints, colistin EUCAST
[9] = Staphylococcus aureus (n = 104), all methicillin-resistant
[10] = Staphylococcus aureus (n = 104)

SMILES	% R (percent of isolates resistant) [1]	% R (percent of isolates resistant) [2]	% R (percent of isolates resistant) [3]	% R (percent of isolates resistant) [4]	% R (percent of isolates resistant) [4, 8]	MIC50 [5]	MIC90 [5]	% R (percent of isolates resistant) ([5]; Enterobacter spp. (n = 102))	MIC [5]	% R (percent of isolates resistant) [6, 10]	MIC50 ([7]; Enterococcus faecium)	MIC90 ([7]; Enterococcus faecium)	MIC ([7]; Enterococcus faecium)	MIC range [6, 9]	% R (percent of isolates resistant) ([7]; Enterococcus faecium (n = 104))	further results
CC(C)(O/N=C(\C(=O)N[C@@H]1C(=O)N2C(C(=O)[O-])=C(C[n+]3ccccc3)CS[C@H]12)c1csc(N)n1)C(=O)O [Ceftazidime]	61.5%	33.6%	14.6%	Over 80%	80.2%	1 µg/mL (≈ 1.83 µM)	> 32 µg/mL	36.3%	> 32 µg/mL	–	–	–	–	–	–	–
CCC[C@@H]1C[C@@H](C(=O)N[C@@H]([C@H]2O[C@H](SC)[C@H](O)[C@@H](O)[C@H]2O)[C@H](C)Cl)N(C)C1 [Clindamycin]	–	–	–	–	–	–	–	–	–	37.5%	> 16 µg/mL	> 16 µg/mL	> 16 µg/mL	–	–	MIC90 [6, 9]: >16 µg/mL
C[C@H]1c2cccc(O)c2C(=O)C2=C(O)[C@]3(O)C(=O)C(C(N)=O)=C(O)[C@@H](N(C)C)[C@@H]3[C@@H](O)[C@@H]21 [Doxycycline]	–	–	–	–	–	–	–	–	–	0%	4 µg/mL (≈ 9 µM)	16 µg/mL (≈ 36 µM)	0.12 µg/mL (≈ 0.27 µM)	0.06 to 8 µg/mL	25%	–
C[C@H]1COc2c(N3CCN(C)CC3)c(F)cc3c(=O)c(C(=O)O)cn1c23 [Levofloxacin]	66.3%	46.5%	21.1%	over 60%	67.3%	0.06 µg/mL (≈ 0.166 µM)	0.5 µg/mL (≈ 1.38 µM)	4.9%	0.03 µg/mL (≈ 0.083 µM)	82.7%	> 8 µg/mL	> 8 µg/mL	> 8 µg/mL	–	–	MIC90 [6, 9]: >8 µg/mL; % R (percent of isolates resistant) ([6]; Staphylococcus aureus (n = 104), listed as levofloxacin): Over 80%
CC(=O)NC[C@H]1CN(c2ccc(N3CCOCC3)c(F)c2)C(=O)O1 [Linezolid]	–	–	–	–	–	–	–	–	–	1.9%	2 µg/mL (≈ 5.93 µM)	4 µg/mL (≈ 11.9 µM)	2 µg/mL (≈ 5.93 µM)	1 to 8 µg/mL	3.8%	MIC range ([7]; Enterococcus faecium (n = 104)): 1 to 32 µg/mL; MIC range ([7]; Enterococcus faecium (n = 104), listed as linezolid): 1 to 32 µg/mL
NC[C@H]1O[C@H](O[C@H]2[C@H](O)[C@@H](O[C@H]3O[C@H](CO)[C@@H](O)[C@H](N)[C@H]3O)[C@H](N)C[C@@H]2N)[C@H](N)C[C@@H]1O [Tobramycin]	49.0%	21.7%	7.4%	over 60%	59.4%	0.5 µg/mL (≈ 1.07 µM)	1 µg/mL (≈ 2.14 µM)	3.9%	0.5 µg/mL (≈ 1.07 µM)	–	–	–	–	–	–	MIC range ([5]; Enterobacter spp. (n = 102)): 0.12 to 64 µg/mL
CN[C@H](CC(C)C)C(=O)N[C@H]1C(=O)N[C@@H](CC(N)=O)C(=O)N[C@H]2C(=O)N[C@H]3C(=O)N[C@H](C(=O)N[C@H](C(=O)O)c4cc(O)cc(O)c4-c4cc3ccc4O)[C@H](O)c3ccc(c(Cl)c3)Oc3cc2cc(c3O[C@@H]2O[C@H](CO)[C@@H](O)[C@H](O)[C@H]2O[C@H]2C[C@](C)(N)[C@H](O)[C@H](C)O2)Oc2ccc(cc2Cl)[C@H]1O [Vancomycin]	–	–	–	–	–	–	–	–	–	0%	1 µg/mL (≈ 0.69 µM)	> 32 µg/mL	> 32 µg/mL	0.5 to 2 µg/mL	47.1%	MIC50 ([6]; Staphylococcus aureus): 1 µg/mL (≈ 0.69 µM); MIC90 ([6]; Staphylococcus aureus): 1 µg/mL (≈ 0.69 µM); MIC ([6]; Staphylococcus aureus, read-out: Mode (MIC)): 1 µg/mL (≈ 0.69 µM); MIC90 ([7]; Enterococcus faecium (n = 104)): >32 µg/mL
